# From patent US20230085307A1, “PYRIDAZINONE COMPOUND AND HERBICIDE” (NISSAN CHEMICAL CORPORATION, priority 2019, published 2023)
# Experiments:
# windgrass [1] = experiment: Test Example 5: herbicidal effect by foliage application, plastic box (Table 20, symbol L); assay type: in vivo, windgrass (Apera spica-venti); details: foliage application, 320 g/ha, evaluated three weeks after application
# Procedure, shortened: (§1)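 Sow seeds spot-wise in sterilized diluvial soil; cover with ~1.5 cm soil. Grow 14 days in greenhouse, 25° C. to 30° C. Spray foliage with emulsion diluted to predetermined amount. Rate effect after 3 weeks.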
# lambsquarters [2] = experiment: Test Example 5: herbicidal effect by foliage application, plastic box (Table 20, symbol O); assay type: in vivo, lambsquarters (Chenopodium album); details: foliage application, 320 g/ha, evaluated three weeks after application
# Procedure, shortened: as §1
# windgrass [3] = experiment: Test Example 4: herbicidal effect by soil treatment (Table 19, symbol L); assay type: in vivo, windgrass (Apera spica-venti); details: amount of applied herbicide 320 g/ha
# Excerpt: (§2) [Test Example 4] Herbicidal Effect Test by Soil Treatment
# (§3) Sterilized diluvial soil was placed in a plastic box having a length of 21 cm, a width of 13 cm, and a depth of 7 cm. The seeds of each of southern crabgrass, green foxtail, barnyard grass, wild oat, blackgrass, Italian ryegrass, windgrass, velvetleaf, redroot pigweed, lambsquarters, chickweed, false cleavers, persian speedwell, corn, soybean, rice, wheat, beet, and rapeseed were sowed in a spot-like manner and covered with the soil having a thickness of about 1.5 cm. Subsequently, the emulsion agent of the compound of the present invention prepared according to Formulation Example 2 was diluted with water so as to achieve a predetermined herbicide amount, and the diluted emulsion agent was uniformly applied to the surface of the soil with a small-sized spray. The plastic box was placed in a greenhouse at 25° C. to 30° C. for growth of the plants. Three weeks after the herbicide application, the effect of the herbicide on each plant was evaluated according to the criteria of Test Example 1.
# Chinese sprangletop = experiment: Test Example 3: herbicidal effect by foliage application, Wagner pot (Table 18, symbol D); assay type: in vivo, chinese sprangletop (Leptochloa chinensis); details: amount of applied herbicide 320 g/ha
# Procedure, shortened: (§4)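 Plants were sown in alluvial soil held under 0.1–0.5 cm standing water and grown 14 days in a greenhouse at 25–30 °C. An emulsifiable formulation, water-diluted to the set dose, was then sprayed onto the foliage, and effects were scored three weeks later using previously defined criteria.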
# velvetleaf [4] = experiment: Test Example 4: herbicidal effect by soil treatment (Table 19, symbol M); assay type: in vivo, velvetleaf (Abutilon theophrasti); details: amount of applied herbicide 320 g/ha
# Procedure, shortened: (§5)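 Soil-surface application: an emulsion agent diluted with water to the predetermined dose is sprayed uniformly over seeds lying under roughly 1.5 cm of sterilized diluvial soil. Boxes stay in a greenhouse at 25° C. to 30° C. Three weeks later, each species is graded on previously defined criteria.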
# chickweed [5] = experiment: Test Example 5: herbicidal effect by foliage application, plastic box (Table 20, symbol P); assay type: in vivo, common chickweed (Stellaria media); details: foliage application, 320 g/ha, evaluated three weeks after application
# Procedure, shortened: as §1
# velvetleaf [6] = experiment: Test Example 5: herbicidal effect by foliage application, plastic box (Table 20, symbol M); assay type: in vivo, velvetleaf (Abutilon theophrasti); details: foliage application, 320 g/ha, evaluated three weeks after application
# Procedure, shortened: as §1
# wild oat [7] = experiment: Test Example 5: herbicidal effect by foliage application, plastic box (Table 20, symbol I); assay type: in vivo, wild oat (Avena fatua); details: foliage application, 320 g/ha, evaluated three weeks after application
# Procedure, shortened: as §1
# barnyard grass [8] = experiment: Test Example 3: herbicidal effect by foliage application, Wagner pot (Table 18, symbol H); assay type: in vivo, barnyard grass (Echinochloa crus-galli); details: amount of applied herbicide 320 g/ha
# Procedure, shortened: as §4
# wild oat [9] = experiment: Test Example 4: herbicidal effect by soil treatment (Table 19, symbol I); assay type: in vivo, wild oat (Avena fatua); details: amount of applied herbicide 320 g/ha
# Procedure, shortened: as §5
# blackgrass [10] = experiment: Test Example 4: herbicidal effect by soil treatment (Table 19, symbol J); assay type: in vivo, blackgrass (Alopecurus myosuroides); details: amount of applied herbicide 320 g/ha
# Excerpt: as §2, §3
# green foxtail [11] = experiment: Test Example 5: herbicidal effect by foliage application, plastic box (Table 20, symbol G); assay type: in vivo, green foxtail (Setaria viridis); details: foliage application, 320 g/ha, evaluated three weeks after application
# Procedure, shortened: as §1
# lambsquarters [12] = experiment: Test Example 4: herbicidal effect by soil treatment (Table 19, symbol O); assay type: in vivo, lambsquarters (Chenopodium album); details: amount of applied herbicide 320 g/ha
# Procedure, shortened: as §5
# Italian ryegrass [13] = experiment: Test Example 5: herbicidal effect by foliage application, plastic box (Table 20, symbol K); assay type: in vivo, Italian ryegrass (Lolium multiflorum); details: foliage application, 320 g/ha, evaluated three weeks after application
# Procedure, shortened: as §1
# redroot pigweed [14] = experiment: Test Example 5: herbicidal effect by foliage application, plastic box (Table 20, symbol N); assay type: in vivo, redroot pigweed (Amaranthus retroflexus); details: foliage application, 320 g/ha, evaluated three weeks after application
# Procedure, shortened: as §1
# southern crabgrass [15] = experiment: Test Example 4: herbicidal effect by soil treatment (Table 19, symbol F); assay type: in vivo, southern crabgrass (Digitaria ciliaris); details: amount of applied herbicide 320 g/ha
# Procedure, shortened: as §5
# Italian ryegrass [16] = experiment: Test Example 4: herbicidal effect by soil treatment (Table 19, symbol K); assay type: in vivo, Italian ryegrass (Lolium multiflorum); details: amount of applied herbicide 320 g/ha
# Excerpt: as §2, §3
# barnyard grass [17] = experiment: Test Example 5: herbicidal effect by foliage application, plastic box (Table 20, symbol H); assay type: in vivo, barnyard grass (Echinochloa crus-galli); details: foliage application, 320 g/ha, evaluated three weeks after application
# Procedure, shortened: as §1
# blackgrass [18] = experiment: Test Example 5: herbicidal effect by foliage application, plastic box (Table 20, symbol J); assay type: in vivo, blackgrass (Alopecurus myosuroides); details: foliage application, 320 g/ha, evaluated three weeks after application
# Procedure, shortened: as §1
# southern crabgrass [19] = experiment: Test Example 5: herbicidal effect by foliage application, plastic box (Table 20, symbol F); assay type: in vivo, southern crabgrass (Digitaria ciliaris); details: foliage application, 320 g/ha, evaluated three weeks after application
# Procedure, shortened: as §1
# persian speedwell = experiment: Test Example 5: herbicidal effect by foliage application, plastic box (Table 20, symbol R); assay type: in vivo, Persian speedwell (Veronica persica); details: foliage application, 320 g/ha, evaluated three weeks after application
# Procedure, shortened: as §1
# chickweed [20] = experiment: Test Example 4: herbicidal effect by soil treatment (Table 19, symbol P); assay type: in vivo, common chickweed (Stellaria media); details: amount of applied herbicide 320 g/ha
# Procedure, shortened: as §5
# redroot pigweed [21] = experiment: Test Example 4: herbicidal effect by soil treatment (Table 19, symbol N); assay type: in vivo, redroot pigweed (Amaranthus retroflexus); details: amount of applied herbicide 320 g/ha
# Procedure, shortened: as §5
# barnyard grass [22] = experiment: Test Example 4: herbicidal effect by soil treatment (Table 19, symbol H); assay type: in vivo, barnyard grass (Echinochloa crus-galli); details: amount of applied herbicide 320 g/ha
# Procedure, shortened: as §5
# rice flat sedge = experiment: Test Example 3: herbicidal effect by foliage application, Wagner pot (Table 18, symbol E); assay type: in vivo, rice flat sedge (Cyperus iria); details: amount of applied herbicide 320 g/ha
# Procedure, shortened: as §4
# green foxtail [23] = experiment: Test Example 4: herbicidal effect by soil treatment (Table 19, symbol G); assay type: in vivo, green foxtail (Setaria viridis); details: amount of applied herbicide 320 g/ha
# Procedure, shortened: as §5
smiles,measurement,setting,value
COc1ccc(-c2sc3ccc(Cl)cc3c2-c2c(O)c(C)nn(C)c2=O)cc1C [2-119],herbicidal effect on L: windgrass,windgrass [1],0 (Herbicidal rate of 5% or less (almost no effect))
same,herbicidal effect on O: lambsquarters,lambsquarters [2],3 (Herbicidal rate of 40% or more and less than 70%)
same,"L: windgrass, herbicidal effect rating",windgrass [3],0 (Herbicidal rate of 5% or less (almost no effect))
same,herbicidal effect on D: Chinese sprangletop,Chinese sprangletop,2 (Herbicidal rate of 20% or more and less than 40%)
same,"M: velvetleaf, herbicidal effect rating",velvetleaf [4],0 (Herbicidal rate of 5% or less (almost no effect))
same,herbicidal effect on P: chickweed,chickweed [5],1 (Herbicidal rate of 5% or more and less than 20%)
same,herbicidal effect on M: velvetleaf,velvetleaf [6],3 (Herbicidal rate of 40% or more and less than 70%)
same,herbicidal effect on I: wild oat,wild oat [7],0 (Herbicidal rate of 5% or less (almost no effect))
same,herbicidal effect on H: barnyard grass,barnyard grass [8],3 (Herbicidal rate of 40% or more and less than 70%)
same,"I: wild oat, herbicidal effect rating",wild oat [9],0 (Herbicidal rate of 5% or less (almost no effect))
same,"J: blackgrass, herbicidal effect rating",blackgrass [10],0 (Herbicidal rate of 5% or less (almost no effect))
same,herbicidal effect on G: green foxtail,green foxtail [11],0 (Herbicidal rate of 5% or less (almost no effect))
same,"O: lambsquarters, herbicidal effect rating",lambsquarters [12],2 (Herbicidal rate of 20% or more and less than 40%)
same,herbicidal effect on K: Italian ryegrass,Italian ryegrass [13],0 (Herbicidal rate of 5% or less (almost no effect))
same,herbicidal effect on N: redroot pigweed,redroot pigweed [14],0 (Herbicidal rate of 5% or less (almost no effect))
same,"F: southern crabgrass, herbicidal effect rating",southern crabgrass [15],0 (Herbicidal rate of 5% or less (almost no effect))
same,"K: Italian ryegrass, herbicidal effect rating",Italian ryegrass [16],0 (Herbicidal rate of 5% or less (almost no effect))
same,herbicidal effect on H: barnyard grass,barnyard grass [17],1 (Herbicidal rate of 5% or more and less than 20%)
same,herbicidal effect on J: blackgrass,blackgrass [18],3 (Herbicidal rate of 40% or more and less than 70%)
same,herbicidal effect on F: southern crabgrass,southern crabgrass [19],0 (Herbicidal rate of 5% or less (almost no effect))
same,herbicidal effect on R: persian speedwell,persian speedwell,3 (Herbicidal rate of 40% or more and less than 70%)
same,"P: chickweed, herbicidal effect rating",chickweed [20],0 (Herbicidal rate of 5% or less (almost no effect))
same,"N: redroot pigweed, herbicidal effect rating",redroot pigweed [21],0 (Herbicidal rate of 5% or less (almost no effect))
same,"H: barnyard grass, herbicidal effect rating",barnyard grass [22],0 (Herbicidal rate of 5% or less (almost no effect))
same,herbicidal effect on E: rice flat sedge,rice flat sedge,3 (Herbicidal rate of 40% or more and less than 70%)
same,"G: green foxtail, herbicidal effect rating",green foxtail [23],0 (Herbicidal rate of 5% or less (almost no effect))
